System: MV-4-11 cells
Test: Gene expression microarray analysis (Affymetrix PrimeView) and GSEA
Format: cell-based, human
Parameters: RFU PODN (11730768_x_at) / Fold change /veh PODN (11730768_x_at) / RFU LINC00158 (11744669_a_at) / Fold change /veh LINC00158 (11744669_a_at) / RFU DUSP10 (11751237_a_at) / Fold change /veh DUSP10 (11751237_a_at) / RFU ID3 (11757404_x_at) / Fold change /veh ID3 (11757404_x_at) / RFU PLEKHG5 (11737974_s_at) / Fold change /veh PLEKHG5 (11737974_s_at) / RFU LRRC4B (11730491_at) / Fold change /veh LRRC4B (11730491_at) / RFU GIMAP4 (11747438_a_at) / Fold change /veh GIMAP4 (11747438_a_at) / RFU KRT8 (11758183_x_at) / Fold change /veh KRT8 (11758183_x_at) / RFU CNN1 (11734310_a_at) / Fold change /veh CNN1 (11734310_a_at) / RFU VPS37D (11726825_at) / Fold change /veh VPS37D (11726825_at) / RFU C10orf10 (11716522_x_at) / Fold change /veh C10orf10 (11716522_x_at) / RFU KIR2DL2 /// KIR2DL4 /// KIR2DL5A /// KIR2DL5B /// KIR2DS1 /// KIR2DS2 /// KIR2DS3 /// KIR2DS4 /// KIR3DL3 /// KIR3DL3 /// KIR3DS1 (11738374_at) / Fold change /veh KIR2DL2 /// KIR2DL4 /// KIR2DL5A /// KIR2DL5B /// KIR2DS1 /// KIR2DS2 /// KIR2DS3 /// KIR2DS4 /// KIR3DL3 /// KIR3DL3 /// KIR3DS1 (11738374_at) / RFU C1QL1 (11718748_at) / Fold change /veh C1QL1 (11718748_at) / RFU TMPRSS4 (11747572_a_at) / Fold change /veh TMPRSS4 (11747572_a_at) / RFU HAMP (11756126_x_at) / Fold change /veh HAMP (11756126_x_at) / RFU RNFT2 (11725882_a_at) / Fold change /veh RNFT2 (11725882_a_at) / RFU NR4A2 (11747474_a_at) / Fold change /veh NR4A2 (11747474_a_at) / RFU ABCC12 (11746883_a_at) / Fold change /veh ABCC12 (11746883_a_at) / RFU TMEM136 (11760407_x_at) / Fold change /veh TMEM136 (11760407_x_at) / RFU CLDN22 /// WWC2 (11732394_at) / Fold change /veh CLDN22 /// WWC2 (11732394_at) / RFU HLA-DPB1 (11760878_x_at) / Fold change /veh HLA-DPB1 (11760878_x_at) / RFU SPINT1 (11716480_a_at) / Fold change /veh SPINT1 (11716480_a_at) / RFU GAP43 (11754022_s_at) / Fold change /veh GAP43 (11754022_s_at) / RFU A4GNT (11735810_at) / Fold change /veh A4GNT (11735810_at) / RFU PRB3 (11715151_x_at) / Fold change /veh PRB3 (11715151_x_at) / RFU TUBB4B (11761932_at) / Fold change /veh TUBB4B (11761932_at) / RFU CAPN14 (11732068_a_at) / Fold change /veh CAPN14 (11732068_a_at) / RFU TMCC2 (11721928_a_at) / Fold change /veh TMCC2 (11721928_a_at) / RFU IRGQ (11745062_a_at) / Fold change /veh IRGQ (11745062_a_at) / RFU FAM174B (11720279_a_at) / Fold change /veh FAM174B (11720279_a_at) / RFU TMPRSS4 (11748680_a_at) / Fold change /veh TMPRSS4 (11748680_a_at) / RFU FAM212B (11763350_a_at) / Fold change /veh FAM212B (11763350_a_at) / RFU PLEKHG5 (11743358_a_at) / Fold change /veh PLEKHG5 (11743358_a_at) / RFU ZSCAN30 (11745921_a_at) / Fold change /veh ZSCAN30 (11745921_a_at) / RFU CMKLR1 (11741424_a_at) / Fold change /veh CMKLR1 (11741424_a_at) / RFU LOC101060620 /// MAPK8IP1 (11723275_at) / Fold change /veh LOC101060620 /// MAPK8IP1 (11723275_at) / RFU SPTSSB (11747773_x_at) / Fold change /veh SPTSSB (11747773_x_at) / RFU PRSS12 (11739890_at) / Fold change /veh PRSS12 (11739890_at) / RFU BIN1 (11741810_x_at) / Fold change /veh BIN1 (11741810_x_at) / RFU WNT11 (11732464_a_at) / Fold change /veh WNT11 (11732464_a_at) / RFU C10orf10 (11716521_a_at) / Fold change /veh C10orf10 (11716521_a_at) / RFU C5orf56 (11738089_at) / Fold change /veh C5orf56 (11738089_at) / RFU CYB561 (11721691_x_at) / Fold change /veh CYB561 (11721691_x_at) / RFU ANKRD19P (11752326_a_at) / Fold change /veh ANKRD19P (11752326_a_at) / RFU OR2T12 /// OR2T33 /// OR2T8 (11738714_s_at) / Fold change /veh OR2T12 /// OR2T33 /// OR2T8 (11738714_s_at) / RFU VCAN (11748164_a_at) / Fold change /veh VCAN (11748164_a_at) / RFU JSRP1 (11732532_at) / Fold change /veh JSRP1 (11732532_at) / RFU KRTAP10-11 (11738290_x_at) / Fold change /veh KRTAP10-11 (11738290_x_at) / RFU MYO3A (11730013_a_at) / Fold change /veh MYO3A (11730013_a_at) / RFU EBF3 (11725865_a_at) / Fold change /veh EBF3 (11725865_a_at) / RFU CAMK2N1 (11719241_x_at) / Fold change /veh CAMK2N1 (11719241_x_at) / RFU C5orf56 (11738088_a_at) / Fold change /veh C5orf56 (11738088_a_at) / RFU OLFML3 (11715873_a_at) / Fold change /veh OLFML3 (11715873_a_at) / RFU LOC100653217 /// NTM (11731650_a_at) / Fold change /veh LOC100653217 /// NTM (11731650_a_at) / RFU MAPK11 (11762145_a_at) / Fold change /veh MAPK11 (11762145_a_at) / RFU FIZ1 (11724087_x_at) / Fold change /veh FIZ1 (11724087_x_at) / RFU OASL (11726364_x_at) / Fold change /veh OASL (11726364_x_at) / RFU SOX15 (11748057_x_at) / Fold change /veh SOX15 (11748057_x_at) / RFU CD79A (11719716_a_at) / Fold change /veh CD79A (11719716_a_at) / RFU HIST1H1D (11736915_at) / Fold change /veh HIST1H1D (11736915_at) / RFU CASKIN2 (11723855_a_at) / Fold change /veh CASKIN2 (11723855_a_at) / RFU LOC730098 (11760151_x_at) / Fold change /veh LOC730098 (11760151_x_at) / RFU OR4N2 (11742367_at) / Fold change /veh OR4N2 (11742367_at) / RFU PRRT2 (11749266_a_at) / Fold change /veh PRRT2 (11749266_a_at) / RFU SNX32 (11753110_a_at) / Fold change /veh SNX32 (11753110_a_at) / RFU CDHR5 (11726645_a_at) / Fold change /veh CDHR5 (11726645_a_at) / RFU RCAN1 (11760418_a_at) / Fold change /veh RCAN1 (11760418_a_at) / RFU FAM167A (11723789_a_at) / Fold change /veh FAM167A (11723789_a_at) / RFU FAM26E (11764081_at) / Fold change /veh FAM26E (11764081_at) / RFU ISYNA1 (11749810_s_at) / Fold change /veh ISYNA1 (11749810_s_at) / RFU ACY1 (11761880_at) / Fold change /veh ACY1 (11761880_at) / RFU 11764098_at / Fold change /veh 11764098_at / RFU SAMD14 (11745864_x_at) / Fold change /veh SAMD14 (11745864_x_at) / RFU NPB (11741838_a_at) / Fold change /veh NPB (11741838_a_at) / RFU TMPRSS6 (11731388_a_at) / Fold change /veh TMPRSS6 (11731388_a_at) / RFU KRTAP10-2 (11738614_at) / Fold change /veh KRTAP10-2 (11738614_at) / RFU ARHGAP8 /// PRR5-ARHGAP8 (11727945_x_at) / Fold change /veh ARHGAP8 /// PRR5-ARHGAP8 (11727945_x_at) / RFU KRTAP5-7 /// NADSYN1 (11734609_at) / Fold change /veh KRTAP5-7 /// NADSYN1 (11734609_at) / RFU RASL12 (11751679_a_at) / Fold change /veh RASL12 (11751679_a_at) / RFU CDKN2B (11736163_a_at) / Fold change /veh CDKN2B (11736163_a_at) / RFU PRF1 (11729649_at) / Fold change /veh PRF1 (11729649_at) / RFU, ZNF638 /// ZNF638-IT1 / Fold change vs veh, ZNF638 /// ZNF638-IT1 / RFU, PANK3 / Fold change vs veh, PANK3 / RFU, SH3YL1 / Fold change vs veh, SH3YL1 / RFU, ZEB2 / Fold change vs veh, ZEB2 / RFU, NRIP1 / Fold change vs veh, NRIP1 / RFU, PTTG1IP / Fold change vs veh, PTTG1IP / RFU, CAPN2 / Fold change vs veh, CAPN2 / RFU, MED14 / Fold change vs veh, MED14 / RFU, SNORA58 / Fold change vs veh, SNORA58 / RFU, C1orf63 / Fold change vs veh, C1orf63 / RFU, LRRFIP1 / Fold change vs veh, LRRFIP1 / RFU, NDUFAF7 / Fold change vs veh, NDUFAF7 / RFU, SLC12A2 / Fold change vs veh, SLC12A2 / RFU, IBTK / Fold change vs veh, IBTK / RFU, ESF1 / Fold change vs veh, ESF1 / Fold change vs veh, TMEM50B / RFU, TAOK1 / Fold change vs veh, TAOK1 / RFU, ACBD3 / Fold change vs veh, ACBD3 / RFU, TMA16 / Fold change vs veh, TMA16 / RFU, RWDD3 / Fold change vs veh, RWDD3 / RFU, BCAT1 / Fold change vs veh, BCAT1 / RFU, EDEM3 / Fold change vs veh, EDEM3 / RFU, TMEM33 / Fold change vs veh, TMEM33 / RFU, WDR75 / Fold change vs veh, WDR75 / RFU, AHCTF1 / Fold change vs veh, AHCTF1 / RFU, TFRC / Fold change vs veh, TFRC / RFU, ZDHHC17 / Fold change vs veh, ZDHHC17 / RFU, NOM1 / Fold change vs veh, NOM1 / RFU, ARL8B / Fold change vs veh, ARL8B / RFU, ZBTB11 / Fold change vs veh, ZBTB11 / RFU, TAMM41 / Fold change vs veh, TAMM41 / RFU, KIAA1704 /// LOC100996395 / Fold change vs veh, KIAA1704 /// LOC100996395 / RFU, ING1 / Fold change vs veh, ING1 / RFU, TRMT61B / Fold change vs veh, TRMT61B / RFU, FUBP3 / Fold change vs veh, FUBP3 / RFU, TP53 / Fold change vs veh, TP53 / RFU, TNKS2 / Fold change vs veh, TNKS2 / RFU, ZFP14 / Fold change vs veh, ZFP14 / RFU, ACTR2 / Fold change vs veh, ACTR2 / RFU, PPP3R1 / Fold change vs veh, PPP3R1 / RFU, PIK3R1 / Fold change vs veh, PIK3R1 / RFU, HNRNPA1 / Fold change vs veh, HNRNPA1 / RFU, RNF170 / Fold change vs veh, RNF170 / RFU, ZNF28 / Fold change vs veh, ZNF28 / RFU, RNGTT / Fold change vs veh, RNGTT / RFU, OGT / Fold change vs veh, OGT / RFU, BRD1 / Fold change vs veh, BRD1 / RFU, MARS / Fold change vs veh, MARS / RFU, ZNF655 / Fold change vs veh, ZNF655 / RFU, FAHD1 / Fold change vs veh, FAHD1 / RFU, BDP1 / Fold change vs veh, BDP1 / RFU, LRRCC1 / Fold change vs veh, LRRCC1 / RFU, ARID1A / Fold change vs veh, ARID1A / RFU, ZNF146 / Fold change vs veh, ZNF146 / RFU, ZNF330 / Fold change vs veh, ZNF330 / RFU, GPN3 / Fold change vs veh, GPN3 / RFU, C9orf123 / Fold change vs veh, C9orf123 / RFU, N4BP2L2 / Fold change vs veh, N4BP2L2 / RFU, ARFIP1 / Fold change vs veh, ARFIP1 / RFU, FAM179B / Fold change vs veh, FAM179B / RFU, BCL10 / Fold change vs veh, BCL10 / RFU, UHRF1BP1L / Fold change vs veh, UHRF1BP1L / RFU, BET1 / Fold change vs veh, BET1 / RFU, CNOT2 / Fold change vs veh, CNOT2 / RFU, ZNF268 / Fold change vs veh, ZNF268 / Fold change vs veh, ZNF507 / RFU, DGCR2 / Fold change vs veh, DGCR2 / RFU, WDSUB1 / Fold change vs veh, WDSUB1 / Fold change vs veh, HSP90B1 /// MIR3652 / RFU, ADSS / Fold change vs veh, ADSS / RFU, GK / Fold change vs veh, GK / RFU, ZNF148 / Fold change vs veh, ZNF148 / RFU, TAF9 / Fold change vs veh, TAF9 / RFU, SLC1A5 / Fold change vs veh, SLC1A5 / RFU, SLMO2 / Fold change vs veh, SLMO2 / RFU, ABCC4 / Fold change vs veh, ABCC4 / RFU, LOC101060439 /// RAP1B / Fold change vs veh, LOC101060439 /// RAP1B / RFU, RFX7 / Fold change vs veh, RFX7 / RFU, GTPBP10 / Fold change vs veh, GTPBP10 / RFU, CNEP1R1 / Fold change vs veh, CNEP1R1 / RFU, BIVM-ERCC5 /// ERCC5 / Fold change vs veh, BIVM-ERCC5 /// ERCC5 / RFU, ILF3 / Fold change vs veh, ILF3 / RFU 11762660_at / Fold change /veh 11762660_at / RFU VCAN (11757783_s_at) / Fold change /veh VCAN (11757783_s_at) / RFU DDX43 (11728927_at) / Fold change /veh DDX43 (11728927_at) / RFU KRT8 (11758188_x_at) / Fold change /veh KRT8 (11758188_x_at) / RFU NKD1 (11759106_at) / Fold change /veh NKD1 (11759106_at) / RFU SRD5A1 (11742802_a_at) / Fold change /veh SRD5A1 (11742802_a_at) / RFU TPSAB1 /// TPSB2 (11721975_s_at) / Fold change /veh TPSAB1 /// TPSB2 (11721975_s_at) / RFU GSTM3 (11746129_a_at) / Fold change /veh GSTM3 (11746129_a_at) / RFU IL23R (11737362_x_at) / Fold change /veh IL23R (11737362_x_at) / RFU TMEM51 (11727254_a_at) / Fold change /veh TMEM51 (11727254_a_at) / RFU PIWIL2 (11732686_x_at) / Fold change /veh PIWIL2 (11732686_x_at) / RFU ORM1 (11744905_x_at) / Fold change /veh ORM1 (11744905_x_at) / RFU CCDC152 (11743942_at) / Fold change /veh CCDC152 (11743942_at) / RFU ECM1 (11717891_a_at) / Fold change /veh ECM1 (11717891_a_at) / RFU IL23R (11748794_a_at) / Fold change /veh IL23R (11748794_a_at) / RFU TNFAIP8L3 (11732012_x_at) / Fold change /veh TNFAIP8L3 (11732012_x_at) / RFU MBOAT4 (11741988_at) / Fold change /veh MBOAT4 (11741988_at) / RFU 11764193_at / Fold change /veh 11764193_at / RFU TMEM53 (11763286_at) / Fold change /veh TMEM53 (11763286_at) / RFU MAGEB2 (11727129_at) / Fold change /veh MAGEB2 (11727129_at) / RFU TMEM200A (11744735_a_at) / Fold change /veh TMEM200A (11744735_a_at) / RFU CCDC152 (11751479_a_at) / Fold change /veh CCDC152 (11751479_a_at) / RFU FAM211A (11726209_a_at) / Fold change /veh FAM211A (11726209_a_at) / RFU RGS16 (11746705_a_at) / Fold change /veh RGS16 (11746705_a_at) / RFU VCAN (11755009_s_at) / Fold change /veh VCAN (11755009_s_at) / RFU RHOB (11743442_s_at) / Fold change /veh RHOB (11743442_s_at) / RFU RGS16 (11720943_a_at) / Fold change /veh RGS16 (11720943_a_at) / RFU RGS16 (11720944_at) / Fold change /veh RGS16 (11720944_at) / RFU, VPS4B / Fold change vs veh, VPS4B / RFU, CREB1 / Fold change vs veh, CREB1 / RFU, DNAJC13 / Fold change vs veh, DNAJC13 / RFU, GNAQ / Fold change vs veh, GNAQ / RFU, CDK5R1 / Fold change vs veh, CDK5R1 / RFU, ZRANB3 / Fold change vs veh, ZRANB3 / RFU, CUL4A / Fold change vs veh, CUL4A / RFU, CCNY / Fold change vs veh, CCNY / RFU, UFL1 / Fold change vs veh, UFL1 / RFU, COG3 / Fold change vs veh, COG3 / RFU, DIAPH2 / Fold change vs veh, DIAPH2 / RFU, SKA2 / Fold change vs veh, SKA2 / RFU, AFF3 / Fold change vs veh, AFF3 / RFU, LMF1 / Fold change vs veh, LMF1 / RFU, IPO11 / Fold change vs veh, IPO11 / RFU, DFFB / Fold change vs veh, DFFB / RFU, FOXP1 / Fold change vs veh, FOXP1 / RFU, CARD8 / Fold change vs veh, CARD8 / RFU, STRN3 / Fold change vs veh, STRN3 / RFU, ADK / Fold change vs veh, ADK / RFU, RASSF2 / Fold change vs veh, RASSF2 / RFU, WIPF1 / Fold change vs veh, WIPF1 / RFU, LARP1B / Fold change vs veh, LARP1B / RFU, RASA1 / Fold change vs veh, RASA1 / RFU, RB1 / Fold change vs veh, RB1 / RFU, PPFIA1 / Fold change vs veh, PPFIA1 / RFU, MAT2A / Fold change vs veh, MAT2A / RFU, CCT5 / Fold change vs veh, CCT5 / RFU, WDR92 / Fold change vs veh, WDR92 / RFU, CUX1 / Fold change vs veh, CUX1 / RFU, TTC7A / Fold change vs veh, TTC7A / RFU, TMEM135 / Fold change vs veh, TMEM135 / RFU, DEPTOR / Fold change vs veh, DEPTOR / RFU, CPM / Fold change vs veh, CPM / RFU, DNAJB6 / Fold change vs veh, DNAJB6 / RFU, CACNA2D3 / Fold change vs veh, CACNA2D3 / RFU, DTX4 / Fold change vs veh, DTX4 / RFU, TFCP2 / Fold change vs veh, TFCP2 / RFU, GMCL1 /// GMCL1P1 / Fold change vs veh, GMCL1 /// GMCL1P1 / RFU, AEBP2 / Fold change vs veh, AEBP2 / RFU, SNHG1 /// SNORD22 /// SNORD25 /// SNORD26 /// SNORD27 /// SNORD28 /// SNORD29 /// SNORD31 / Fold change vs veh, SNHG1 /// SNORD22 /// SNORD25 /// SNORD26 /// SNORD27 /// SNORD28 /// SNORD29 /// SNORD31 / Fold change (Aza/veh), C12orf56 (ProbeSet 11735607_a_at) / Fold change (ACY-1035/veh), C12orf56 (ProbeSet 11735607_a_at) / Fold change (Aza/veh), FGFR1OP (ProbeSet 11751329_s_at) / Fold change (ACY-1035/veh), FGFR1OP (ProbeSet 11751329_s_at) / Fold change (Aza/veh), VPS36 (ProbeSet 11739960_a_at) / Fold change (ACY-1035/veh), VPS36 (ProbeSet 11739960_a_at) / RFU SYPL1 (11715823_x_at) / Fold change /veh SYPL1 (11715823_x_at) / RFU IGFBP7 (11715501_s_at) / Fold change /veh IGFBP7 (11715501_s_at) / RFU REEP3 (11722064_at) / Fold change /veh REEP3 (11722064_at) / RFU IGLL1 (11728026_x_at) / Fold change /veh IGLL1 (11728026_x_at): dose or concentration left out as unconfirmed
Conditions: ProbeSet 11741123_x_at; LIST D

Nc1ncn([C@@H]2O[C@H](CO)[C@@H](O)[C@H]2O)c(=O)n1 [azacitidine]
Fold change vs veh, ADK: 0.72
